Numbers after ± are expanded uncertainties.
Columns and labels:
[1] = refractive index (Na D-line) (dimensionless); settings: 101.33 kPa, Liquid, Standard Abbe refractometry
[2] = for mass density: 101.33 kPa, Vibrating tube method; for mass density / surface tension liquid-gas: Liquid; for surface tension liquid-gas: Maximal bubble pressure; for Glass transition temperature: DSC

CCCCn1cc[n+](C)c1.N[C@@H](CO)C(=O)[O-] [1-butyl-3-methylimidazolium L-serinate]
Settings	mass density, [2] [kg/m3]	refractive index, [1]	surface tension liquid-gas, [2] [mN/m]
298.15 K	1156.04 ± 1.1	1.5143 ± 0.0005	45.4 ± 0.4
303.15 K	1152.82 ± 1.1	1.5135 ± 0.0005	45.2 ± 0.4
308.15 K	1149.61 ± 1.1	1.5126 ± 0.0005	45 ± 0.4
313.15 K	1146.45 ± 1.1	1.5114 ± 0.0005	44.7 ± 0.4
318.15 K	1143.31 ± 1.1	1.5106 ± 0.0005	44.4 ± 0.4
323.15 K	1140.08 ± 1.1	1.5096 ± 0.0005	44.3 ± 0.4
328.15 K	1136.91 ± 1.1	1.5091 ± 0.0005	44 ± 0.4
333.15 K	1133.81 ± 1.1	1.5077 ± 0.0005	43.8 ± 0.4
338.15 K	1130.64 ± 1.1	1.5069 ± 0.0005	43.5 ± 0.4

Settings	Glass transition temperature [°C]
[2]	-47.20 ± 1

CCC[n+]1ccn(C)c1.N[C@@H](CO)C(=O)[O-] [1-methyl-3-propylimidazolium L-serinate]
Settings	mass density, [2] [kg/m3]	refractive index, [1]	surface tension liquid-gas, [2] [mN/m]
298.15 K	1181.51 ± 1.1	1.5179 ± 0.0005	46.8 ± 0.5
303.15 K	1178.34 ± 1.1	1.5165 ± 0.0005	46.6 ± 0.4
308.15 K	1175.19 ± 1.1	1.5153 ± 0.0005	46.4 ± 0.4
313.15 K	1172.03 ± 1.1	1.5141 ± 0.0005	46.1 ± 0.4
318.15 K	1168.88 ± 1.1	1.5131 ± 0.0005	45.8 ± 0.4
323.15 K	1165.67 ± 1.1	1.5123 ± 0.0005	45.6 ± 0.4
328.15 K	1162.6 ± 1.1	1.5112 ± 0.0005	45.4 ± 0.4
333.15 K	1159.49 ± 1.1	1.51 ± 0.0005	45.1 ± 0.4
338.15 K	1156.42 ± 1.1	1.5086 ± 0.0005	44.9 ± 0.4

Settings	Glass transition temperature [°C]
[2]	-54.5 ± 1

Source: the NIST ThermoML archive (doi:10.1016/j.jct.2015.04.029)
